According to publication PMC7156367, “Cell surface processing of the P1 adhesin of Mycoplasma pneumoniae identifies novel domains that bind host molecules” (Scientific Reports, 2020):
Entries after “also recorded” stand apart in the source; their conditions may differ. Where a SMILES comes first, the peptide text is derived from it. Where no end group is shown, it is not given here. The star is where a group is joined. Biotin = O=C1N[C@H]2[C@H](CS[C@H]2CCCCC(=O)*)N1

Key:
plasminogen = molecular target: T1, plasminogen (Homo sapiens, UniProt P00747); assay: Microscale thermophoresis, binding to plasminogen
T1 construct: purchased Merck Millipore (Code 528175) or Sigma (Glu-plasminogen, Code P7999); host or cells: human plasma
Procedure: (§1) Binding affinities to fluorescent labelled host proteins was measured by microscale thermophoresis as described in[72]. Microscale thermophoresis was set to 30 s and samples were scanned with 40%, 60% and 80% MST Power. Dissociation constants were determined from generated dissociation curves with set hot/cold or thermophoresis settings. As a control, a scrambled version of the C-terminal P1 peptide ([…]) was synthesised by Chempeptide Limited (China) without any tags and binding affinities was measured.

[1] = system: glyceraldehyde-3-phosphate dehydrogenase; assay: Affinity chromatography of A549 lysate on P1-15, glyceraldehyde-3-phosphate dehydrogenase; format: binding, human; conditions: slice 3; biotinylated P1-15 on avidin agarose vs uncoupled control; native A549 cell lysate
Procedure: (§2) The C-terminal sequence of P1 (P1-15) was synthesised with an N-terminal biotin tag by Chempeptide Limited (China). Affinity chromatography was performed similar to the section above. In brief, 1 mg of the peptide was added to Avidin Agarose beads for 16 h at 4 °C. The beads were washed four times (5 ml per wash) with PBS before being incubated with native A549 cell lysates (harvested in 1% w/v C7BzO in PBS) for 16 h at 4 °C. Non-binding proteins were washed from the column with four washes (5 ml per wash) of PBS and protein complexes with an affinity to the peptide were eluted from the column with 7 M urea, 2 M thiourea, 40 mM Tris-HCl, and 1% (w/v) C7BzO (4 times of 2 ml). Eluents were concentrated with a Macrosep® 3 kDa cutoff centrifugal device (Pall), precipitated with acetone, and separated by 1D-SDS PAGE. The whole lane was divided into sections, in-gel digested with trypsin, and analysed by LC-MS/MS as described above.

plasma fibronectin = assay: Microtitre plate binding assay (ELISA), fibronectin; parameters: species or system human; conditions: 15 µg/ml of C-terminal P1 fragments bound to wells, absorbance 450 nm (620 nm reference), eight replicates, P1-15 with N-terminal biotin tag
Procedure: (§3) Human proteins used for ELISA include: plasma fibrinogen (Code: F3879), plasma fibronectin (Code: 11051407001), Glu-plasminogen (Code: P7999), vitronectin (Code: SRP3186), laminin (Code: L6274), and lactoferrin (Code: L1294) which were all supplied by Sigma.
(§4) Binding affinity measured by ELISA was performed as described previously. Recombinant protein RP15 was produced as described[55] and both C-terminal peptides were synthesised by Chempeptide Limited (China). P1-30 (^1597[…]^1627) without any tags, but P1-15 (^1613PGAPKPPVQPPKKPA^1627) was sequenced with an N-terminal biotin tag.
(§5) 15 µg/ml of C-terminal P1 fragments were bound to wells and incubated with different host proteins. Wells were then incubated with different antiserum raised against the different host proteins at the following dilutions (all from Sigma): anti-fibrinogen 1:3000, anti-fibronectin 1:1000, anti-plasminogen: 1:2500, anti-vitronectin 1:5000, anti-laminin 1:750, and anti-lactoferrin 1:5,000. These incubations were followed by incubations with anti-rabbit IgG (Dako) or anti-goat IgG (both 1:2,000). Detection was measured by adding Tetramethylbenzidine (Sigma) followed by 1 M HCl, and absorbance was measured at 450 nm (620 nm as reference).

vitronectin = assay: Microtitre plate binding assay (ELISA), vitronectin; parameters: species or system human; conditions: 15 µg/ml of C-terminal P1 fragments bound to wells, absorbance 450 nm (620 nm reference), eight replicates, P1-15 with N-terminal biotin tag
Procedure: as §3, §4, §5

Glu-plasminogen = assay: Microtitre plate binding assay (ELISA), plasminogen; parameters: species or system human; conditions: 15 µg/ml of C-terminal P1 fragments bound to wells, absorbance 450 nm (620 nm reference), eight replicates, P1-15 with N-terminal biotin tag
Procedure: as §3, §4, §5

cytokeratin 18 = assay: Affinity chromatography of A549 lysate on P1-15, cytokeratin 18; format: binding, human; conditions: biotinylated P1-15 on avidin agarose vs uncoupled avidin agarose control, native A549 cell lysate
Procedure: as §2

panel of host proteins = assay: Microtitre binding assays, panel of host proteins; parameters: species or system human; conditions: 15 µg/ml of C-terminal P1 fragments bound to wells
Procedure: as §3, §4, §5

laminin = assay: Microtitre plate binding assay (ELISA), laminin; parameters: species or system human; conditions: 15 µg/ml of C-terminal P1 fragments bound to wells, absorbance 450 nm (620 nm reference), eight replicates, P1-15 with N-terminal biotin tag
Procedure: as §3, §4, §5

lactoferrin = assay: Microtitre plate binding assay (ELISA), lactoferrin; parameters: species or system human; conditions: 15 µg/ml of C-terminal P1 fragments bound to wells, absorbance 450 nm (620 nm reference), eight replicates, P1-15 with N-terminal biotin tag
Procedure: as §3, §4, §5

cytokeratin 7 = assay: Affinity chromatography of A549 lysate on P1-15, cytokeratin 7; format: binding, human; conditions: biotinylated P1-15 on avidin agarose vs uncoupled avidin agarose control, native A549 cell lysate
Procedure: as §2

cytokeratin 8 = assay: Affinity chromatography of A549 lysate on P1-15, cytokeratin 8; format: binding, human; conditions: biotinylated P1-15 on avidin agarose vs uncoupled avidin agarose control, native A549 cell lysate
Procedure: as §2

vimentin = assay: Affinity chromatography of A549 lysate on P1-15, vimentin; format: binding, human; conditions: biotinylated P1-15 on avidin agarose vs uncoupled avidin agarose control, native A549 cell lysate
Procedure: as §2

plasma fibrinogen = assay: Microtitre plate binding assay (ELISA), fibrinogen; parameters: species or system human; conditions: 15 µg/ml of C-terminal P1 fragments bound to wells, absorbance 450 nm (620 nm reference), eight replicates, P1-15 with N-terminal biotin tag
Procedure: as §3, §4, §5

fetuin = molecular target: T2, fetuin (Bos taurus, UniProt P12763); assay: Microscale thermophoresis, binding to fetuin
T2 construct: purchased Sigma F3004
T2 sequence (P12763 19-359): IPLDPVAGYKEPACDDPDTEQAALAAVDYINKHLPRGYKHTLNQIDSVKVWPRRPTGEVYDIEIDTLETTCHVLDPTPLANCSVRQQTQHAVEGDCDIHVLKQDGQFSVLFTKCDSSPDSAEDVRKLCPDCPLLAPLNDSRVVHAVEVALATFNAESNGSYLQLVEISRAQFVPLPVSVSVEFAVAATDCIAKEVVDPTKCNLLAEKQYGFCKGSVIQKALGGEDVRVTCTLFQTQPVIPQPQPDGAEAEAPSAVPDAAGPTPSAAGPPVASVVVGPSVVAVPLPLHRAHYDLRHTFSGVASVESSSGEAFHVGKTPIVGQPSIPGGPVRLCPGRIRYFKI
Procedure: as §1

[2] = parameters: method as in PMID 28894125; conditions: ref [12]; cited from earlier work
Human vitronectin = molecular target: T3, Human vitronectin (human, UniProt P04004 20-478); assay: ELISA; 15 µg/ml of C-terminal P1 fragment bound to wells, incubated with host protein at several concentrations; detected with antiserum against the host protein, absorbance at 450 nm; conditions: both partners purified
T3 construct: vitronectin, human, Sigma SRP3186; source: bought: Sigma (Code SRP3186)
T3 sequence (P04004 20-478): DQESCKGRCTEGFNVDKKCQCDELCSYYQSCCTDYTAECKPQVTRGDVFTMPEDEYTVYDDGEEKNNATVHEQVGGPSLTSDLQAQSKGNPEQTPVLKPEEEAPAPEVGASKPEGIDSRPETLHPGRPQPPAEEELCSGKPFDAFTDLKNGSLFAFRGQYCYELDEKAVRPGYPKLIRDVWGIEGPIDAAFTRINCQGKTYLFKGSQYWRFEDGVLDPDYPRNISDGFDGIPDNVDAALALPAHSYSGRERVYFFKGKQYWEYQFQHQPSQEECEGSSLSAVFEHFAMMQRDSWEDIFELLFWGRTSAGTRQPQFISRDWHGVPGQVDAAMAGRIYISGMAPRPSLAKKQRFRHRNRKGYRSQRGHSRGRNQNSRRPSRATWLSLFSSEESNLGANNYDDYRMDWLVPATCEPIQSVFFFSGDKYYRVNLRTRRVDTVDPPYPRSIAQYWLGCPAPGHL

[3] = molecular target: T4, Fetuin, fluorescent labelled (microscale thermophoresis) (bovine, UniProt P12763 19-359, fluorescent label); assay: MST; fluorescent labelled host protein, peptide titrated; thermophoresis 30 s, 40%, 60% and 80% MST power; conditions: both partners purified
T4 construct: fetuin
T4 sequence (looked up): T2 sequence (P12763 19-359)

Human lactoferrin = molecular target: T5, Human lactoferrin (human, UniProt P02788 20-710); assay: ELISA; 15 µg/ml of C-terminal P1 fragment bound to wells, incubated with host protein at several concentrations; detected with antiserum against the host protein, absorbance at 450 nm; conditions: both partners purified
T5 construct: lactoferrin, human, Sigma L1294; source: bought: Sigma (Code L1294)
T5 sequence (P02788 20-710): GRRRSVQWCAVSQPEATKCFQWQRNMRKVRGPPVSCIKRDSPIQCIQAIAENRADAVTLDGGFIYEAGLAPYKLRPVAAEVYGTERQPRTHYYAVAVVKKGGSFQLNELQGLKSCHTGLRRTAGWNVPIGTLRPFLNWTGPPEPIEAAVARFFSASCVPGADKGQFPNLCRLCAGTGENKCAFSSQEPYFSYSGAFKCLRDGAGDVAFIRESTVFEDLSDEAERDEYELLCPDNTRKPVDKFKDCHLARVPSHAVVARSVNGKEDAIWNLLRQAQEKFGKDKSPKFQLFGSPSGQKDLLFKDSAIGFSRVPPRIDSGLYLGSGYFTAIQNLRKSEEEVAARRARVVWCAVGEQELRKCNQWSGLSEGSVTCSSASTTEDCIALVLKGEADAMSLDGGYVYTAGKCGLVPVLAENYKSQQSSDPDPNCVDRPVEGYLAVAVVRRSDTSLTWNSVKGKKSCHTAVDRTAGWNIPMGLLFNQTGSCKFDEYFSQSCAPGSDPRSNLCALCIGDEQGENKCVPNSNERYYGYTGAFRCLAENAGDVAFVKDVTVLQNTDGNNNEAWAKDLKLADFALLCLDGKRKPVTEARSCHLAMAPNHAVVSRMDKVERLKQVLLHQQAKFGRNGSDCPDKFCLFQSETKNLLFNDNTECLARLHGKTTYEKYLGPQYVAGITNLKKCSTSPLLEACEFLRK

A549 human lung cells = assay: Binding to immobilised A549 human lung cells (microtitre plate); format: cell-based; conditions: 10 µg/ml; detection with antiserum against RP15 (1:100), absorbance 450 nm; eight replicates
Procedure: Freshly grown A549 cells were immobilised in 96-well microtitre plates as described in[17]. Immobilised A549 cells were incubated with 10 µg/ml of either RP15, P1-30, or P1-15 and binding affinity was measured with antiserum raised against RP15 (1:100) as described above. Absorbance detection at 450 nm is the same as described above.

[4] = listed as 1613PGAPKPPVQPPKKPA^1627

Molecule: CC(C)[C@H](NC(=O)[C@@H]1CCCN1C(=O)[C@@H]1CCCN1C(=O)[C@H](CCCCN)NC(=O)[C@@H]1CCCN1C(=O)[C@H](C)NC(=O)CNC(=O)[C@@H]1CCCN1C(=O)[C@H](CCCCN)NC(=O)[C@@H]1CCCN1C(=O)[C@@H]1CCCN1C(=O)[C@@H](NC(=O)[C@@H]1CCCN1C(=O)[C@@H]1CCCN1C(=O)[C@H](CCCNC(=N)N)NC(=O)[C@@H]1CCCN1C(=O)[C@H](C)NC(=O)CNC(=O)[C@@H]1CCCN1C(=O)[C@H](CCCCN)NC(=O)[C@H](C)NC(=O)[C@H](C)NC(=O)[C@H](CO)NC(=O)[C@@H](N)[C@@H](C)O)C(C)C)C(=O)N[C@@H](CCC(N)=O)C(=O)N1CCC[C@H]1C(=O)N1CCC[C@H]1C(=O)N[C@@H](CCCCN)C(=O)N[C@@H](CCCCN)C(=O)N1CCC[C@H]1C(=O)N[C@@H](C)C(=O)O [P1-30] (H-TSAAKPGAPRPPVPPKPGAPKPPVQPPKKPA-OH)
- Kd (plasminogen): 554 ± 2.1 nM

Molecule: PGAPKPPVQPPKKPA [P1-15, C-terminal 15 amino acids of P1, synthesised chemically, N-terminal biotin tag]
- recovery of glyceraldehyde-3-phosphate dehydrogenase [1]: also identified in the eluents from the control
- binding to fibronectin (plasma fibronectin): failed to bind laminin, lactoferrin, fibronectin
- binding to vitronectin (vitronectin): also bound to vitronectin
- binding to plasminogen (Glu-plasminogen): only bound plasminogen in a dose dependent manner; also recorded: bound plasminogen in a dose-responsive manner
- selective recovery / binding, cytokeratin 18 (cytokeratin 18): selectively recovered
- selective recovery / binding, cytokeratin 18 (cytokeratin 18; [4]): selectively bound
- binding to panel of host molecules (panel of host proteins): bind a range of host molecules in a dose dependent manner
- binding to laminin (laminin): failed to bind laminin
- binding to lactoferrin (lactoferrin): failed to bind laminin, lactoferrin
- selective recovery / binding, cytokeratin 7 (cytokeratin 7): selectively recovered
- selective recovery / binding, cytokeratin 7 (cytokeratin 7; [4]): selectively bound
- selective recovery / binding, cytokeratin 8 (cytokeratin 8): selectively recovered
- selective recovery / binding, cytokeratin 8 (cytokeratin 8; [4]): selectively bound
- selective recovery / binding, vimentin (vimentin): selectively recovered
- selective recovery / binding, vimentin (vimentin; [4]): selectively bound
- binding to fibrinogen (plasma fibrinogen): failed to bind laminin, lactoferrin, fibronectin, and fibrinogen

Molecule: PKPPRAAPPKAPTPVPPGPASPVKKPKQAPG [scrambled version of P1-30, scrambled version of the C-terminal P1 peptide ([…])]
- binding affinity in words, fetuin (fetuin): No binding affinity could be detected
- KD, fetuin (fetuin; fluorescent labelled host protein, 30 s, 40%, 60% and 80% MST Power): could not be assigned a KD value
- binding affinity in words, plasminogen (plasminogen; microscale thermophoresis): No binding affinity could be detected
- KD, plasminogen (plasminogen; microscale thermophoresis, fluorescent labelled host protein, 30 s, 40%, 60% and 80% MST Power): could not be assigned a KD value

Molecule: elongation factor Tu [Ef-Tu]
- affinity to heparin [2]: strong affinity to heparin

B1: P1-15, synthetic C-terminal peptide of P1 adhesin with N-terminal biotin (peptide)
peptide: Biotin-PGAPKPPVQPPKKPA
notes: P1 adhesin (Mpn141) of M. pneumoniae, residues 1613-1627; also called C-terminal 15 amino acids; source: synthetic peptide (Chempeptide Limited, China)
- binding result (Human vitronectin): binds

B2: P1-30, synthetic C-terminal peptide of P1 adhesin (peptide)
peptide: TSAAKPGAPRPPVPPKPGAPKPPVQPPKKPA
notes: P1 adhesin (Mpn141) of M. pneumoniae, residues 1597-1627; without any tags; also called C-terminal 30 amino acids; P1 tail; source: synthetic peptide (Chempeptide Limited, China)
- Kd [3]: 2400 ± 700 nM

B3: Recombinant protein RP15 (C-terminal region of P1 adhesin) (domain or fragment)
chain: DYVLPLAITVPIVVIVLSVTLGLAIGIPMHKNKQALKAGFALSNQKVDVLTKAVGSVFKEIINRTGISQAPKRLKQTSAAKPGAPRPPVPPKPGAPKPPVQPPKKPA
notes: P1 adhesin (Mpn141) of M. pneumoniae, residues 1521-1627
- binding to fibronectin (plasma fibronectin): bound lactoferrin, vitronectin, plasminogen, fibronectin
- binding to fibronectin (plasma fibronectin; listed as RP-15): bound fibronectin and fibrinogen more strongly than P1-30
- binding to vitronectin (vitronectin): bound lactoferrin, vitronectin
- binding to plasminogen (Glu-plasminogen): bound lactoferrin, vitronectin, plasminogen
- binding to plasminogen (Glu-plasminogen; listed as RP-15): bound it more strongly
- binding to panel of host molecules (panel of host proteins): bind a range of host molecules in a dose dependent manner; also recorded: most consistent and most diverse binding capabilities
- binding to laminin (laminin): Only M. pneumoniae cells bound laminin
- binding result (Human lactoferrin): binds
- binding result (Human vitronectin): binds
- binding to lactoferrin (lactoferrin): bound lactoferrin
- binding to immobilised A549 cells (A549 human lung cells): bound immobilised A549 cells; also recorded: observed to bind immobilised A549 cells
- binding to fibrinogen (plasma fibrinogen): bound lactoferrin, vitronectin, plasminogen, fibronectin, and fibrinogen
- binding to fibrinogen (plasma fibrinogen; listed as RP-15): bound fibronectin and fibrinogen more strongly than P1-30

B4: rPdhB: Recombinant pyruvate dehydrogenase subunit B of M. pneumoniae (positive control) (protein, UniProt P75391 1-327, looked up)
Pyruvate dehydrogenase E1 …: MSKTIQANNIEALGNAMDLALERDPNVVLYGQDAGFEGGVFRATKGLQKKYGEERVWDCPIAEAAMAGIGVGAAIGGLKPIVEIQFSGFSFPAMFQIFTHAARIRNRSRGVYTCPIIVRMPMGGGIKALEHHSETLEAIYGQIAGLKTVMPSNPYDTKGLFLAAVESPDPVVFFEPKKLYRAFRQEIPADYYTVPIGQANLISQGNNLTIVSYGPTMFDLINMVYGGELKDKGIELIDLRTISPWDKETVFNSVKKTGRLLVVTEAAKTFTTSGEIIASVTEELFSYLKAAPQRVTGWDIVVPLARGEHYQFNLNARILEAVNQLLK
- binding to immobilised A549 cells (A549 human lung cells): bound immobilised A549 cells
